Publication PMC5059489, “Mechanistic evaluation and transcriptional signature of a glutathione S-transferase omega 1 inhibitor” (Nature Communications, 2016)
Values joined by “and” are separate entries in the source; they are usually repeats but may differ in a detail not shown here. Identical values can stand only once.

Legend:
HCT116p53+/+ cell = assay: MTT cell proliferation at single concentration; format: cell-based, human
Procedure: Cell proliferation was assessed by a MTT assay. Cancer cells were seeded in 96-well microtitre plates and, after overnight attachment, treated with GSTO1 inhibitors. After 72 h, MTT solution (3 mg ml^−1; 20 μl) was added to each well and cells were incubated for 3 h at 37 °C. After incubation, media from each well was removed and the dark blue formazan crystals formed by live cells were dissolved in DMSO (150 μl per well). The absorbance intensity was measured at 570 nm on a microplate reader (Molecular Devices, Sunnyvale, CA, USA). Cell viability after 24 h treatment was assessed using ApoTox-Glo triplex assay (Promega) according to the manufacturer's protocol. At least three independent dose–response experiments with each concentration tested in triplicate were performed for each cell line.

GSTO1 [1] = biological target: T1, GSTO1 (Homo sapiens, UniProt P78417); assay: GSTO1 substrate assay (reduction of 4-NPG); settings: for IC50: read-out: GSTO substrate assay IC50, cluster screening tables
T1 sequence (P78417 1-241): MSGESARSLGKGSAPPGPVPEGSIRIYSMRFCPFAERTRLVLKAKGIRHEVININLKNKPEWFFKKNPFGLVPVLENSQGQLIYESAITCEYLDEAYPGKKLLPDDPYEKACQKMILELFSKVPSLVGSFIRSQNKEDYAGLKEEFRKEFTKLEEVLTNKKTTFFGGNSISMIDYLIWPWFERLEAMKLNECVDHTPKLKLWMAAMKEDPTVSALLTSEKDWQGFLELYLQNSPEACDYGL
Procedure: For activity screening, we adapted a GSTO1 substrate assay that relies on the quantification of the reduction of S-(4-nitrophenacyl)glutathione (4-NPG), a GSTO1-specific substrate[17], using recombinant human GSTO1 in a high-throughput screening format.
Enzyme activity was measured by monitoring the reduction of 4-NPG to 4-nitroacetophenone by GSTO1.

GSTO1 [2] = biological target: T1, GSTO1; assay: In-gel fluorescence competitive CMFDA binding assay, recombinant GSTO1; settings: inhibition of CMFDA binding
Source text: (§1) Primary screening of GSTO inhibitors was based on competitive inhibition of CMFDA binding to endogenous GSTO. Briefly, HCT116^p53+/+ cells (4 × 10^4 per well) were coated in a 12-well plate. […] Cells were then washed with PBS and lysed using Cell Lytic M buffer (Sigma). […] Gels were immediately scanned on a Typhoon variable mode imager (Amersham Bioscience). Quantification of fluorescent band intensity was done using Image Quant 5.2 software.

endogenous GSTO1 = biological target: T2, endogenous GSTO1 (Homo sapiens, UniProt P78417); assay: In-gel fluorescence competitive CMFDA binding assay, endogenous GSTO1 in HCT116; settings: 10 µM; inhibition of CMFDA binding, HCT116
T2 sequence (P78417 1-241): T1 sequence (P78417 1-241)
Source text: as §1

GSTO substrate assay % Inhibition at 10 µM (GSTO1 [1]) [%] | GSTO binding assay (% Inhibition at 10 µM) Recombinant (GSTO1 [2]) [%] | GSTO binding assay (% Inhibition at 10 µM) Endogenous (endogenous GSTO1) [%] | IC50 (GSTO1 [1]) [nM] | Compound | % Inhibition of HCT116p53+/+ cell proliferation at 10 µM (HCT116p53+/+ cell)
10.4 | 26.5 | 40.1 |  | O=C(CCl)Nc1cc2c(cc1Cl)C(=O)c1ccccc1C2=O [C1-12] | 85%
42.0 | 15.1 | 44.1 |  | CC(C)C(NC(=O)CCl)c1cccs1 (centres unmarked) [C3-28] | 48.5% and 48.7%
61.5 | 37.8 | 47.0 |  | Cc1c(C#N)c(NC(=O)CCl)n(-c2ccc(F)cc2)c1C [C2-3] | 49%
1.8 | -36.4 | 53.0 |  | CN(CC(=O)Nc1c(Cl)cccc1Cl)C(=O)CCl [C4-7] | 81.8%
12.5 | 12.3 | 12.6 |  | CC(NC(=O)CCl)c1ccc2c(c1)OCO2 (centres unmarked) [C3-7] | 73.6%
2.4 | 82.7 | 61.7 |  | O=C(CCl)N1CCN(S(=O)(=O)C=Cc2ccccc2)CC1 [C5-16] | 48.3% and 46.5%
84.5 | 36.8 | 25.2 |  | N#Cc1cnn(-c2ccccc2)c1NC(=O)CCl [C2-6] | -17% and -9.7%
92.5 | 81.5 | 31.8 |  | O=C(CCl)Nc1cc([N+](=O)[O-])ccc1Nc1ccc(F)cc1 [C1-4] | 80.6%
61.9 | 57.6 | 39.3 |  | O=C(CCl)NNc1c(Cl)cc(Cl)cc1Cl [C3-17] | 7.4%
93.8 | 62.3 | 75.7 | 293 | N#CC(c1ccccc1)N1CCN(C(=O)CCl)CC1 (centres unmarked) [C5-8] | 82.6% and 87.3%
1.2 | 51.8 | 58.6 |  | Cc1c(NC(=O)c2c(NC(=O)CCl)sc3c2CCCC3)c(=O)n(-c2ccccc2)n1C [C2-19] | 52.7% and 40.5%
4.4 | 64.1 | 69.4 |  | O=C(CCl)Nc1cc(C2CC2)nn1-c1ccccc1 [C2-5] | -2.7% and -8.6%
40.0 | 65.0 | 28.9 |  | COc1ccc(C2=NN(C(=O)CCl)C(c3cccc(OC)c3OC)C2)cc1 (centres unmarked) [C5-21] | 78.2% and 83.6%
100.9 | 54.1 | 66.2 | 1220 | O=C(CCl)Nc1ccc(Cl)cc1[N+](=O)[O-] [C1-2] | 7.4%
13.9 | 50.0 | 59.2 |  | CCOC(=O)c1c(NC(=O)CCl)sc(Cl)c1-c1ccccc1 [C2-9] | 16.3%
